In US7718767B2, “3-ether and 3-thioether substituted cyclosporin derivatives for the treatment and prevention of hepatitis C infection” (Scynexis, Inc., priority 2006, dated 2010):

Legend:
HCV RNA replicon ET = experiment: HCV RNA replicon luciferase reporter assay, antiviral activity; assay type: cell-based; conditions: ET replicon cells, 72 h, LUC activity; for EC90: concentration reducing viral replication by 90%; for EC50: concentration reducing viral replication by 50%
[1] = tested on: human hepatoma cell line ET; experiment: Cytotoxicity in the replicon cell line, colorimetric assay of cell numbers; conditions: ET cells, 72 h; for IC50: read-out: Cytotoxicity IC50, concentration inhibiting cell viability by 50%; for IC90: read-out: Cytotoxicity IC90, concentration inhibiting cell viability by 90%
Text: Compounds were examined in the human hepatoma cell line ET (lub ubi heo/ET), a HCV RNA replicon containing a stable luciferase (LUC) reporter. The HCV RNA replicon ET contains the 5′ end of HCV (with the HCV Internal Ribosome Entry Site (IRES) and the first few amino acids of the HCV core protein) which drives the production of a firefly luciferase (LUC), ubiquitin, and neomycin phosphotransferase (NeoR) fusion protein. Ubiquitin cleavage releases the LUC and NeoR proteins. The EMCV IRES element controls the translation of the HCV […] NS3-NS5. The NS3 protein cleaves the HCV polyprotein to release the mature NS3, NS4A, NS4B, NS5A and NS5B proteins that are required for HCV replication. At the 3′ end of the replicon is the authentic 3′ NTR of HCV. The activity of the LUC reporter is directly proportional to HCV replication levels and positive-control antiviral compounds produce a reproducible antiviral response using the LUC endpoint.
The compounds were dissolved in DMSO at five half-log concentrations each, ranging from either 0.02 to 2.0 μM, 0.03 to 3 μM, […], or 1 to 100 μM. Subconfluent cultures of the ET line were plated out into 96 well plates dedicated for the analysis of cell numbers (cytotoxicity) or antiviral activity and the next day the compounds were added to the appropriate wells. The cells were processed 72 h later when the cells were still subconfluent. […] The activity of the LUC reporter is directly proportional to HCV RNA levels in the human cell line. The HCV-replicon assay was validated in parallel experiments using interferon-alpha-2b as a positive control.

Row | SMILES | EC90 (HCV RNA replicon ET) | IC50 [1] | IC90 [1] | EC50 (HCV RNA replicon ET)
1 | C/C=C/C[C@@H](C)[C@@H](O)[C@H]1C(=O)N[C@@H](CC)C(=O)N(C)C(OC)C(=O)N(C)[C@@H](CC(C)C)C(=O)N[C@@H](C(C)C)C(=O)N(C)[C@@H](CC(C)C)C(=O)N[C@@H](C)C(=O)N[C@H](C)C(=O)N(C)[C@@H](CC(C)C)C(=O)N(C)[C@@H](CC(C)C)C(=O)N(C)[C@@H](C(C)C)C(=O)N1C (some centres unmarked) [A, 3-methoxycyclosporin] | 220 nM | 2330 nM | > 3000 nM | –
2 | C/C=C/C[C@@H](C)[C@@H](O)[C@H]1C(=O)N[C@@H](CC)C(=O)N(C)[C@H](OCCN)C(=O)N(C)[C@@H](CC(C)C)C(=O)N[C@@H](C(C)C)C(=O)N(C)[C@@H](CC(C)C)C(=O)N[C@@H](C)C(=O)N[C@H](C)C(=O)N(C)[C@@H](CC(C)C)C(=O)N(C)[C@@H](CC(C)C)C(=O)N(C)[C@@H](C(C)C)C(=O)N1C [Compound B, 3-(2-aminoethoxy)cyclosporin] | 2720 nM | 6310 nM | 20300 nM | 1180 nM
3 | C/C=C/C[C@@H](C)[C@@H](O)[C@H]1C(=O)N[C@@H](CC)C(=O)N(C)[C@H](OCCN(C)C)C(=O)N(C)[C@@H](CC(C)C)C(=O)N[C@@H](C(C)C)C(=O)N(C)[C@@H](CC(C)C)C(=O)N[C@@H](C)C(=O)N[C@H](C)C(=O)N(C)[C@@H](CC(C)C)C(=O)N(C)[C@@H](CC(C)C)C(=O)N(C)[C@@H](C(C)C)C(=O)N1C [Compound C, 3-(2-N,N-dimethylaminoethoxy)cyclosporin] | 640 nM | > 3000 nM | > 3000 nM | 180 nM
4 | CC=CCC(C)C(O)C1C(=O)NC(CC)C(=O)N(C)C(OCC(CC)CC)C(=O)N(C)C(CC(C)C)C(=O)NC(C(C)C)C(=O)N(C)C(CC(C)C)C(=O)NC(C)C(=O)NC(C)C(=O)N(C)C(CC(C)C)C(=O)N(C)C(CC(C)C)C(=O)N(C)C(C(C)C)C(=O)N1C (centres unmarked) [Compound E, 3-(2-ethylbutoxy)cyclosporin] | – | 15600 nM | – | –
5 | C/C=C/C[C@@H](C)[C@@H](O)[C@H]1C(=O)N[C@@H](CC)C(=O)N(C)C(OCCNC)C(=O)N(C)[C@@H](CC(C)C)C(=O)N[C@@H](C(C)C)C(=O)N(C)[C@@H](CC(C)C)C(=O)N[C@@H](C)C(=O)N[C@H](C)C(=O)N(C)[C@@H](CC(C)C)C(=O)N(C)[C@@H](CC(C)C)C(=O)N(C)[C@@H](C(C)C)C(=O)N1C (some centres unmarked) [Compound I, 3-[2-(N-methylamino)ethoxy]cyclosporin] | 1870 nM | 2830 nM | 17400 nM | 1010 nM
6 | C/C=C/C[C@@H](C)[C@@H](O)[C@H]1C(=O)N[C@@H](CC)C(=O)N(C)[C@H](OCC(C)(C)C)C(=O)N(C)[C@@H](CC(C)C)C(=O)N[C@@H](C(C)C)C(=O)N(C)[C@@H](CC(C)C)C(=O)N[C@@H](C)C(=O)N[C@H](C)C(=O)N(C)[C@@H](CC(C)C)C(=O)N(C)[C@@H](CC(C)C)C(=O)N(C)[C@@H](C(C)C)C(=O)N1C [F, 3-(2,2-dimethylpropoxy)cyclosporin] | – | > 20000 nM | – | 17000 nM
7 | C/C=C/C[C@@H](C)[C@@H](O)[C@H]1C(=O)N[C@@H](CC)C(=O)N(C)C(OCCO)C(=O)N(C)[C@@H](CC(C)C)C(=O)N[C@@H](C(C)C)C(=O)N(C)[C@@H](CC(C)C)C(=O)N[C@@H](C)C(=O)N[C@H](C)C(=O)N(C)[C@@H](CC(C)C)C(=O)N(C)[C@@H](CC(C)C)C(=O)N(C)[C@@H](C(C)C)C(=O)N1C (some centres unmarked) [G, 3-(2-hydroxyethoxy)cyclosporin] | 570 nM | 10300 nM | > 20000 nM | < 200 nM
8 | C/C=C/C[C@@H](C)[C@@H](O)[C@H]1C(=O)N[C@@H](CC)C(=O)N(C)C(OCCN(C)C(C)C)C(=O)N(C)[C@@H](CC(C)C)C(=O)N[C@@H](C(C)C)C(=O)N(C)[C@@H](CC(C)C)C(=O)N[C@@H](C)C(=O)N[C@H](C)C(=O)N(C)[C@@H](CC(C)C)C(=O)N(C)[C@@H](CC(C)C)C(=O)N(C)[C@@H](C(C)C)C(=O)N1C (some centres unmarked) [J, 3-[2-(N-methyl-N-isopropylamino)ethoxy]cyclosporin] | 530 nM | 8200 nM | 19600 nM | 150 nM
